The target in series [1] is T1, human GluN1/GluN2A NMDARs (Homo sapiens, UniProt Q05586+Q12879).
T1 construct: host or cells: HEK293
Kind of series: Automated patch clamp, NMDARs in HEK293 cells. Conditions: +40 mV; glycine 100 μM plus NMDA 90 μM; stable HEK293. In kind it is cell-based. The method, then: (§1) Recombinant human GluN1 (UniProt ID Q05586) with GluN2A (Uniprot Q12879) or GluN2B (Uniprot Q13224) NMDARs were stably expressed under tetracycline control in HEK293 cell lines (Charles River). Voltage-clamp recordings were performed using the Sophion Qube platform which performs 384 parallel and independent patch-clamp recordings with digitally controlled microfluidics (Tecan D300) on a disposable single-hole or multi-hole QChip. The following extracellular solution was used: 145 mM NaCl, 4 mM KCl, 10 mM HEPES, 10 mM glucose, 2 mM CaCl2, 1 mM MgCl2; pH 7.4. The following intracellular solution was used: 70 mM CsF, 70 mM CsCl, 10 mM HEPES, 1 mM EGTA; 316 mOsm, pH 7.2. For analysis of channel activation kinetics, cells were held at −70 mV and stepped to −20 mV before the application of glycine (100 μM) plus NMDA (90 μM for GluN1/GluN2A and 40 μM for GluN1/GluN2B). […] Quality control thresholds were set according to the seal resistance (minimum […]), and failed experiments were excluded from the analysis. For analysis of steady state agonist IC50 values, voltage steps to +40 mV were performed in the presence and absence of agonists before and after compound application in the same cell. IC50 data were generated from agonist responses as described before.[20]
(§2) Figure S1. Analysis of IC50 values of FP802 for NMDARs in HEK293 cells. […] The effects of FP802 on NMDARs were evaluated at +40 […]
In general terms: Patch clamp records ionic current or voltage across a cell membrane.

Series [2] deals with T2, human GluN1/GluN2B NMDARs (Homo sapiens, UniProt Q05586+Q13224).
T2 construct: host or cells: HEK293
Briefly: Automated patch clamp, NMDARs in HEK293 cells. The note with it: +40 mV; glycine 100 μM plus NMDA 40 μM; stable HEK293. The class given is cell-based. On the procedure: as §1, §2

A short description of series [3]: Serum clinical chemistry of treated SOD1G93A mice. The class given is in vivo, mouse. Conditions: 40 mg/kg/day s.c. pump. The method, then:
All hematology and most serum clinical chemistry analyses were carried out by IDEXX Laboratories, Germany. The neurofilament light chain levels in serum were determined by PBL Assay Science (USA) using the Simoa NF-light Advantage Kit (Quanterix Cat #103186).
Vehicle FP802 n Significance 95% Interval
Table S3. Clinical chemistry serum parameters of SOD1G93A mice treated with vehicle or FP802.
FP802 delivered with a subcutaneously implanted ALZET osmotic pump at 40 mg/kg/day for 4 weeks starting at
References were from Charles River Laboratories datasheets for C57BL6 mice. Related to Figure 2.

This is an account of results in publication PMC10897598, “TwinF interface inhibitor FP802 stops loss of motor neurons and mitigates disease progression in a mouse model of ALS” (Cell Reports Medicine, 2024).

The structures appear in SMILES notation.

T2 sequence (Q13224 27-1484, other chains not shown): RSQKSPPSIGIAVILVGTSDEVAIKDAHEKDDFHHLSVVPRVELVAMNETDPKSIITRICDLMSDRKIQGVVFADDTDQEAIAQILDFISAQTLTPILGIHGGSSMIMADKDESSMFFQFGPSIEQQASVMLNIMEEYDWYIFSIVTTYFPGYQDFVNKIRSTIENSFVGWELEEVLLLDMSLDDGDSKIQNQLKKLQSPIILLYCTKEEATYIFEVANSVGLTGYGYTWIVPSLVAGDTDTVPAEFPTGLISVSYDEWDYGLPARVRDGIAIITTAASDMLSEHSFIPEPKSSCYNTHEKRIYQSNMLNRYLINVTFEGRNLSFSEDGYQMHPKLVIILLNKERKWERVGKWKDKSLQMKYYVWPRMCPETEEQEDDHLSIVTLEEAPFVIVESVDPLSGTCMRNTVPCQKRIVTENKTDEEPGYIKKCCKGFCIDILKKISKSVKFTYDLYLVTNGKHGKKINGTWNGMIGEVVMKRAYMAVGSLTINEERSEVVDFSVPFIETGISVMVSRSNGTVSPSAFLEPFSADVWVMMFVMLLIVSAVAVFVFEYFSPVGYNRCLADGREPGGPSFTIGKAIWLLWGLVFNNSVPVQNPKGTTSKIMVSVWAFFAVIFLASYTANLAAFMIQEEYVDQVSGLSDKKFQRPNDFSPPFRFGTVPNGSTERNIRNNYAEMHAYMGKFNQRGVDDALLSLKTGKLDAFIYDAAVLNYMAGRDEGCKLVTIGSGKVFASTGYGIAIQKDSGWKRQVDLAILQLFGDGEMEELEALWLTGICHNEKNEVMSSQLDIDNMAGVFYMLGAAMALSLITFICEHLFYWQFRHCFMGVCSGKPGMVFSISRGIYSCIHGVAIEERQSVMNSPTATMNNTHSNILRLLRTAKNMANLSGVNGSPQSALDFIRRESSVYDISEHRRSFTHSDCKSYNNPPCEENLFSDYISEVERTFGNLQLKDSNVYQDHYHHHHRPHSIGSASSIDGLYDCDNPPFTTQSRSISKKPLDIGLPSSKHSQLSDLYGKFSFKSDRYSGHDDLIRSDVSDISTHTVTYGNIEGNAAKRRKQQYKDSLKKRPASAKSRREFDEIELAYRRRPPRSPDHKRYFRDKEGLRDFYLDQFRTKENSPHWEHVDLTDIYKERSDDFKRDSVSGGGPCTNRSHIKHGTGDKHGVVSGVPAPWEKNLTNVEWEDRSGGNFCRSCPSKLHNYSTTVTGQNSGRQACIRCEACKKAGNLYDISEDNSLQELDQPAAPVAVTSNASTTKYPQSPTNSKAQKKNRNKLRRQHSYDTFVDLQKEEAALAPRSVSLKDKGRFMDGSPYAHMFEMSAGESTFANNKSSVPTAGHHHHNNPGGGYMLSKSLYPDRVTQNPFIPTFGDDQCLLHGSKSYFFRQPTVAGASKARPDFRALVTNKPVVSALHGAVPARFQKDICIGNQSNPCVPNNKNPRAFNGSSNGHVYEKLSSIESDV
T1 sequence (Q12879 23-1464, other chains not shown): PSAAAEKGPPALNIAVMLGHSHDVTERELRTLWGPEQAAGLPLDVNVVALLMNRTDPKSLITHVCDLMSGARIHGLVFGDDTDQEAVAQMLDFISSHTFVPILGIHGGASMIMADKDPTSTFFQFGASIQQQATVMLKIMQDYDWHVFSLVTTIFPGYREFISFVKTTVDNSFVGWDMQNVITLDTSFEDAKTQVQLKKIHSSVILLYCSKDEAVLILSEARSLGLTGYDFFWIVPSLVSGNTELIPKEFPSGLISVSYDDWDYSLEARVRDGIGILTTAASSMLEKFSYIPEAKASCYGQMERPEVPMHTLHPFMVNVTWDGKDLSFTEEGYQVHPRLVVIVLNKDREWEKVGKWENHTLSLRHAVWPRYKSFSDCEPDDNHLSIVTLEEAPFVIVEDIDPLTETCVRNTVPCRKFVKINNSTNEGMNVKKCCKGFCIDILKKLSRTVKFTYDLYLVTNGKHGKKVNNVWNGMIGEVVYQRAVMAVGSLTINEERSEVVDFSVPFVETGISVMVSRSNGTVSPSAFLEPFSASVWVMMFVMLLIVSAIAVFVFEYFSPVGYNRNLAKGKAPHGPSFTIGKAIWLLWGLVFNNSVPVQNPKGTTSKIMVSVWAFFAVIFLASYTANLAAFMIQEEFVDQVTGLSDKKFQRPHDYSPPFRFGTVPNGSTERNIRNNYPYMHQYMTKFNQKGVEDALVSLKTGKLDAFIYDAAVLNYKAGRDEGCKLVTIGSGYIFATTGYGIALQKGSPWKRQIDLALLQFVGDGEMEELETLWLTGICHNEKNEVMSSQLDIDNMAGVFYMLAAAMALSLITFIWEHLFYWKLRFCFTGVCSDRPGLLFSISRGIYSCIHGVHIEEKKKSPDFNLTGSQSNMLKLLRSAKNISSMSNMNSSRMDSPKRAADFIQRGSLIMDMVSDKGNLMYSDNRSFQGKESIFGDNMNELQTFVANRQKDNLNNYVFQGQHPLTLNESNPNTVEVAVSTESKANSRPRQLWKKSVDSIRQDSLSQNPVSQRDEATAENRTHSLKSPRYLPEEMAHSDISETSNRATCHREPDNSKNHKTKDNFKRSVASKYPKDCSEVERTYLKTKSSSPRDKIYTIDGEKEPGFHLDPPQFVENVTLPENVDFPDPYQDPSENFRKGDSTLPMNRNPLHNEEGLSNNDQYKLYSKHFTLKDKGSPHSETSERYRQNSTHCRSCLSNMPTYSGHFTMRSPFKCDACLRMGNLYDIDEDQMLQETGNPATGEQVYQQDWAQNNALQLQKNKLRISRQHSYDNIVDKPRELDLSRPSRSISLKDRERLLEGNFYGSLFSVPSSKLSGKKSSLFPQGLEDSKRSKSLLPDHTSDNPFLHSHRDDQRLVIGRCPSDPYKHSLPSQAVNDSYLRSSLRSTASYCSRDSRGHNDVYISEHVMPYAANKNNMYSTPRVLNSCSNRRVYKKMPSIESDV

Take `CCN(CCN)Cc1cccc(Cl)c1` [FP802]: the 50% inhibitory concentration (IC50) in series [1] is more than 250 µM. Besides, the IC50 in series [2] is more than 250 µM. In addition, the “adverse effects on the serum clinical chemistry parameters” value in series [3] (4 weeks) is given as “no adverse effects”. Also, in series [3] (serum, 4 weeks), the ALT amounted to 32.60 ± 8.30 U/L, the AST came to 195.20 ± 147.29 U/L, the Alkaline phosphatase is on record as 69.40 ± 6.84 U/L and the Calcium is on record as 2.35 ± 0.06 mmol/L. In series [3] (serum, 4 weeks), this molecule displayed a Chloride of 111.20 ± 3.03 mmol/L, a Cholesterol of 2.68 ± 0.60 mmol/L, a Creatine kinase of 1500 ± 1475 U/L and a Creatinine of 9.00 ± 2.16 µmol/L. Besides, in series [3] (serum, 4 weeks), the GGT entry is recorded as “Not detectable”, the Inorganic phosphate worked out at 3.26 ± 0.18 mmol/L, the LDH is given as 813.3 ± 474.5 U/L and the Lipase turned out to be 32.80 ± 4.15 U/L. In series [3] (serum, 4 weeks), this molecule returned a Potassium of 9.02 ± 3.83 mmol/L, a Sodium of 149.6 ± 3.9 mmol/L, a Total protein of 50.00 ± 0.71 g/L and a Triglycerides of 0.48 ± 0.13 g/L. Further, the “Urea (BUN)” value in series [3] (serum, 4 weeks) worked out at 7.58 ± 1.32 mmol/L. Also, in series [3] (serum, 4 weeks from 15 weeks of age), the Albumin was determined as 28.00 ± 1.00 g/L.

Broadly, the IC50 is the point on the concentration scale where inhibition reaches its midpoint.
